Source: patent US20040167330A1, “Novel chelating agents and conjugates thereof, their synthesis and use as diagnois and therapeutic agents” (priority 2004, published 2004)
Entries after “also recorded” stand apart in the source; their conditions may differ. Values belong to the molecule of their own block, whether it stands above or below them.

Key:
[1] = Formation of ^90Y-yttrium complex, radiochemical yield by TLC/HPLC; assay type: physicochemical
Experimental: Purified DO3A-P^BnNH2 was dissolved in demineralised water at a concentration of 9×10^−5 mol/l. 0.1 ml of this solution were transferred into a small reaction vial (PE). 0.1 ml ^90Y-yttrium chloride (YCl3) in 0.1 M HCl and 0.1 ml ammonium acetate buffer, pH 5.7, were added. The reaction solutions were mixed well. pH values were measured continuously while preparing the solution. 24 identical solutions were prepared accordingly and stored at 25° C. and 37° C. respectively.
Samples were taken after 15 min, 30 min, 45 min, 60 min, 90 min and 120 min and analyzed by thin layer chromatography using silica gel (POLYGRAM SIL G/UV254) or, preferably, paper (Whatman No. 1) as solid phase. TLC was run using either solvent I: 0.1 N ammonium acetate solution or solvent II: 3% sodium chloride solution as developing solution. In parallel, samples (20 μl) were analyzed by gel filtration using HPLC. The HPLC-system comprised a gamma detector (Berthold LB 506) and a UV/VIS spectrometer (Waters 486) installed in two flow through cells, respectively.
Temperature- and time-dependent studies have shown a very short reaction time for the complex formation of a ^90Y-Yttrium-DO3A-complex.
Furthermore, the effect of pH and ligand concentration on radiochemical yield was evaluated. Table 5 summarizes the results relating to the variation of pH between pH 2.0 and pH 8.9 while maintaining a constant ratio of DO3A-P^BnNH2 and Y of 3:1 and a reaction time of 60 min at 25° C. Accordingly, best labeling results are achieved at pH values of 4.9-8.0. Table 6 summarizes the results relating to the variation of the ligand concentration DO3A-P^BnNH2: Y between 1:1 up to 7:1 while maintaining a constant pH range (pH 5.2) and reaction time of 60 min at 25° C.

[2] = as above; assay type: physicochemical; details: reaction time 0 min, [Y] = 1,2 · 10^−3 mol/l, ratio of ligand: Y = 1:1, pH = 5.5
[3] = Relaxation measurements of gadolinium(III) complex solutions; assay type: physicochemical; details: gadolinium(III) complex in solution; at 10 MHz
Experimental: Solution was stirred for 1 h at room temperature and pH was set to approx. pH 7 by careful addition of solid KOH. Thus prepared solution as well as other solutions of different concentration which were prepared by a similar approach (all containing known amount of water and gadolinium(III)) were used for relaxation measurements. The solutions gave relaxivity 7.86 mmol^−1 s^−1 (at 10 MHz).
Solution of gadolinium(III) complex of compound 1 for relaxation measurements were prepared similarly to Example 51. The solutions gave relaxivity 7.54 mmol-1 s^−1 (at 10 MHz). Exchange half-life of coordinated water molecule 70 ns was determined (from temperature dependence of ^17O NMR parameters).

[4] = Elimination (cumulative excretion of radioactivity) of ^88Y-DO3A-P^BnNH2 complex; assay type: in vivo; details: Wistar SPF rats
Experimental: 2. Determination of elimination (mode and rate) of ^88Y-DO3A-P^BnNH2 complex from the organism
2. Mode and rate of elimination of ^88Y-DO3A-P^BnNH2 complex from the organism as determined by cumulative excretion of radioactivity in intervals of 0-2 h and 0-24 h respectively after intravenous injection of ^88Y-DO3A-P^BnNH2 complex into the vena saphena of Wistar SPF rats are summarized in Table 4.

human plasma proteins = experiment: In vitro binding to human plasma proteins (equilibration dialysis or ultrafiltration); assay type: in vitro ADME; details: 37° C.
Experimental: 3. Determination of the in vitro binding capacity of ^88Y-DO3A-P^BnNH2 complex to human plasma proteins
3. Binding of the 88Y-DO3A-P^BnNH2 complex to human plasma proteins was evaluated at 37° C. using equilibration dialysis or ultrafiltration. 10.2±2.3% or 3.7±3.2% were bound to plasma proteins, respectively. Pharmacokinetically, reversible binding is of no importance.

[5] = Stability of complex in human plasma; assay type: in vitro ADME; details: for High molecular weight form / Low molecular weight form: human plasma, 37° C.
Experimental: 4. Determination of the stability of 88Y-DO3A-P^BnNH2 complex in human plasma
4. Stability of the ^88Y-DO3A-P^BnNH2 complex was determined in human plasma at 37° C. over 14 days using standardised in vitro conditions. […] Dissociation of the radionuclide ^88Y-yttrium from the ^88Y-DO3A-P^BnNH2 complex and binding to plasma proteins (predominantly to complex forming transferrin, a protein which prefers to form complexes with trivalent elements such as Fe^3+, Co^3+ but also Y^3+) was shown only for <2% of the total activity administered to human plasma.

radiochemical yield ([1]; pH 2.0, [Y] = 1.5 · 10^−5 mol/l, ratio of ligand: Y = 3:1, reaction time 60 min, 25° C.): 12% | radiochemical yield ([1]; pH 3.0, [Y] = 1.5 · 10^−5 mol/l, ratio of ligand: Y = 3:1, reaction time 60 min, 25° C.): 54% | radiochemical yield ([1]; pH 3.9, [Y] = 1.5 · 10^−5 mol/l, ratio of ligand: Y = 3:1, reaction time 60 min, 25° C.): 77% | radiochemical yield ([1]; pH 4.4, [Y] = 1.5 · 10^−5 mol/l, ratio of ligand: Y = 3:1, reaction time 60 min, 25° C.): 93% | radiochemical yield ([1]; pH 4.9, [Y] = 1.5 · 10^−5 mol/l, ratio of ligand: Y = 3:1, reaction time 60 min, 25° C.): 97% | radiochemical yield ([1]; pH 5.6, [Y] = 1.5 · 10^−5 mol/l, ratio of ligand: Y = 3:1, reaction time 60 min, 25° C.): 95% | radiochemical yield ([1]; pH 6.0, [Y] = 1.5 · 10^−5 mol/l, ratio of ligand: Y = 3:1, reaction time 60 min, 25° C.): 93% | radiochemical yield ([1]; pH 6.2, [Y] = 1.5 · 10^−5 mol/l, ratio of ligand: Y = 3:1, reaction time 60 min, 25° C.): 97% | radiochemical yield ([1]; pH 6.6, [Y] = 1.5 · 10^−5 mol/l, ratio of ligand: Y = 3:1, reaction time 60 min, 25° C.): 98% | radiochemical yield ([1]; pH 6.8, [Y] = 1.5 · 10^−5 mol/l, ratio of ligand: Y = 3:1, reaction time 60 min, 25° C.): 98% | radiochemical yield ([1]; pH 8.0, [Y] = 1.5 · 10^−5 mol/l, ratio of ligand: Y = 3:1, reaction time 60 min, 25° C.): 98% | radiochemical yield ([1]; pH 8.9, [Y] = 1.5 · 10^−5 mol/l, ratio of ligand: Y = 3:1, reaction time 60 min, 25° C.): 91% | radiochemical yield ([1]; ratio of ligand:Y 1:1, [Y] = 1.2 · 10^−3 mol/l, pH = 5.2, reaction time 60 min, 25° C.): 94% | radiochemical yield ([1]; ratio of ligand:Y 2:1, [Y] = 1.2 · 10^−3 mol/l, pH = 5.2, reaction time 60 min, 25° C.): 97% | radiochemical yield ([1]; ratio of ligand:Y 3:1, [Y] = 1.2 · 10^−3 mol/l, pH = 5.2, reaction time 60 min, 25° C.): 98% | radiochemical yield ([1]; ratio of ligand:Y 4:1, [Y] = 1.2 · 10^−3 mol/l, pH = 5.2, reaction time 60 min, 25° C.): 99% | radiochemical yield ([1]; ratio of ligand:Y 5:1, [Y] = 1.2 · 10^−3 mol/l, pH = 5.2, reaction time 60 min, 25° C.): 97% | radiochemical yield ([1]; ratio of ligand:Y 6:1, [Y] = 1.2 · 10^−3 mol/l, pH = 5.2, reaction time 60 min, 25° C.): 99% | radiochemical yield ([1]; ratio of ligand:Y 7:1, [Y] = 1.2 · 10^−3 mol/l, pH = 5.2, reaction time 60 min, 25° C.): 97% | radiochemical yield ([1]; reaction time 15 min, 25° C., [Y] = 1,2 · 10^−3 mol/l, ratio of ligand: Y = 1:1, pH = 5.5): 97% | radiochemical yield ([1]; reaction time 15 min, 37° C., [Y] = 1,2 · 10^−3 mol/l, ratio of ligand: Y = 1:1, pH = 5.5): 98% | radiochemical yield ([1]; reaction time 30 min, 25° C., [Y] = 1,2 · 10^−3 mol/l, ratio of ligand: Y = 1:1, pH = 5.5): 97% | radiochemical yield ([1]; reaction time 30 min, 37° C., [Y] = 1,2 · 10^−3 mol/l, ratio of ligand: Y = 1:1, pH = 5.5): 98% | radiochemical yield ([1]; reaction time 45 min, 25° C., [Y] = 1,2 · 10^−3 mol/l, ratio of ligand: Y = 1:1, pH = 5.5): 97% | radiochemical yield ([1]; reaction time 45 min, 37° C., [Y] = 1,2 · 10^−3 mol/l, ratio of ligand: Y = 1:1, pH = 5.5): 98% | radiochemical yield ([1]; reaction time 60 min, 25° C., [Y] = 1,2 · 10^−3 mol/l, ratio of ligand: Y = 1:1, pH = 5.5): 97% | radiochemical yield ([1]; reaction time 60 min, 37° C., [Y] = 1,2 · 10^−3 mol/l, ratio of ligand: Y = 1:1, pH = 5.5): 97% | radiochemical yield ([1]; reaction time 90 min, 25° C., [Y] = 1,2 · 10^−3 mol/l, ratio of ligand: Y = 1:1, pH = 5.5): 98% | radiochemical yield ([1]; reaction time 90 min, 37° C., [Y] = 1,2 · 10^−3 mol/l, ratio of ligand: Y = 1:1, pH = 5.5): 98% | radiochemical yield ([1]; reaction time 120 min, 25° C., [Y] = 1,2 · 10^−3 mol/l, ratio of ligand: Y = 1:1, pH = 5.5): 98% | radiochemical yield ([1]; reaction time 120 min, 37° C., [Y] = 1,2 · 10^−3 mol/l, ratio of ligand: Y = 1:1, pH = 5.5): 99% | radiochemical yield ([2]; 25° C.): 88% | radiochemical yield ([2]; 37° C.): 88%
Molecule: Nc1ccc(CP(=O)([O-])CN2CCN(CC(=O)[O-])CCN(CC(=O)[O-])CCN(CC(=O)[O-])CC2)cc1.[90Y+3] [^90Y-DO3A-P^BnNH2-complex]

relaxivity [3]: 7.54 mmol⁻¹ s⁻¹
Molecule: Gadolinium(III) Complex of DO3A-P [gadolinium(III) complex of compound 1]

Cumulative excretion of radioactivity ([4]; Faeces, interval 0-24 h after intravenous injection): 3.6 ± 2.8% | Cumulative excretion of radioactivity ([4]; Urine, interval 0-2 h after intravenous injection): 79.4 ± 5.2% | Cumulative excretion of radioactivity ([4]; Urine, interval 0-24 h after intravenous injection): 84.3 ± 5.0% | bound to plasma proteins (human plasma proteins; equilibration dialysis): 10.2±2.3% | bound to plasma proteins (human plasma proteins; ultrafiltration): 3.7±3.2% | High molecular weight form ([5]; Day 0, Experiment No. 1): 0.28% | Low molecular weight form ([5]; Day 0, Experiment No. 1): 99.72% | High molecular weight form ([5]; Day 0, Experiment No. 2): 0.10% | Low molecular weight form ([5]; Day 0, Experiment No. 2): 99.90% | High molecular weight form ([5]; Day 3, Experiment No. 1): 0.75% | Low molecular weight form ([5]; Day 3, Experiment No. 1): 99.25% | High molecular weight form ([5]; Day 3, Experiment No. 2): 0.56% | Low molecular weight form ([5]; Day 3, Experiment No. 2): 99.44% | High molecular weight form ([5]; Day 5, Experiment No. 1): 0.72% | Low molecular weight form ([5]; Day 5, Experiment No. 1): 99.28% | High molecular weight form ([5]; Day 5, Experiment No. 2): 0.91% | Low molecular weight form ([5]; Day 5, Experiment No. 2): 99.09% | High molecular weight form ([5]; Day 7, Experiment No. 1): 0.79% | Low molecular weight form ([5]; Day 7, Experiment No. 1): 99.21% | High molecular weight form ([5]; Day 7, Experiment No. 2): 0.73% | Low molecular weight form ([5]; Day 7, Experiment No. 2): 99.27% | High molecular weight form ([5]; Day 10, Experiment No. 1): 0.91% | Low molecular weight form ([5]; Day 10, Experiment No. 1): 99.09% | High molecular weight form ([5]; Day 10, Experiment No. 2): 1.08% | Low molecular weight form ([5]; Day 10, Experiment No. 2): 98.92% | High molecular weight form ([5]; Day 12, Experiment No. 1): 1.17% | Low molecular weight form ([5]; Day 12, Experiment No. 1): 98.83% | High molecular weight form ([5]; Day 12, Experiment No. 2): 1.35% | Low molecular weight form ([5]; Day 12, Experiment No. 2): 98.65% | High molecular weight form ([5]; Day 14, Experiment No. 1): 1.68% | Low molecular weight form ([5]; Day 14, Experiment No. 1): 98.32% | High molecular weight form ([5]; Day 14, Experiment No. 2): 1.80% | Low molecular weight form ([5]; Day 14, Experiment No. 2): 98.20%
Molecule: Nc1ccc(CP(=O)([O-])CN2CCN(CC(=O)[O-])CCN(CC(=O)[O-])CCN(CC(=O)[O-])CC2)cc1.[88Y+3] [^88Y-DO3A-P^BnNH2 complex]
Dissociation of the radionuclide ^88Y-yttrium from the complex and binding to plasma proteins ([5]; human plasma at 37° C. over 14 days): < 2 % of the total activity administered to human plasma | Stability of the complex in human plasma ([5]; human plasma at 37° C. over 14 days, standardised in vitro conditions): highly stable; also recorded: high stability
